Marks after values point to notes of the source that are not given here.
Legend:
human PBM cells = experiment: in vitro; assay type: cell-based
Method: The compounds were evaluated for their potential toxic effects on uninfected PHA-stimulated human PBM cells, in CEM (T-lymphoblastoid cell line obtained from American Type Culture Collection, Rockville, Md.) and Vero (African green monkey kidney) cells. PBM cells were obtained from whole blood of healthy seronegative donors (HIV-1 and hepatitis B virus) by single-step Ficoll-Hypaque discontinous gradient centrifugation. […] All of the cells were plated in 96-well cell culture plates containing ten-fold serial dilutions of the test drug. […] At the end of incubation, MTT tetrazolium dye solution (Cell titer 96®, Promega, Madison, Wis.) was added to each well and incubated overnight. The reaction was stopped with stop solubilization solution (Promega, Madison, Wis.). The plates were incubated for 5 hours to ensure that the formazan crystals were dissolved. The plates were read at a wavelength of 570 nm using an ELISA plate reader (Bio-tek instruments, Inc., Winooski, Vt., Model # EL 312e). […] Bookmark not defined.

[1] = test system: CEM (T-lymphoblastoid cell line); assay type: cell-based
Method: (§1) The compounds were evaluated for their potential toxic effects on uninfected PHA-stimulated human PBM cells, in CEM (T-lymphoblastoid cell line obtained from American Type Culture Collection, Rockville, Md.) and Vero (African green monkey kidney) cells. PBM cells were obtained from whole blood of healthy seronegative donors (HIV-1 and hepatitis B virus) by single-step Ficoll-Hypaque discontinous gradient centrifugation. Log phase Vero, CEM and PHA-stimulated human PBM cells were seeded at a density of 5×10^3, 2.5×10^3 and 5×10^4 cells/well respectively. All of the cells were plated in 96-well cell culture plates containing ten-fold serial dilutions of the test drug. The cultures were incubated for 3, 4 and 5 days for Vero, CEM, and PBM cells, respectively in a humidified 5% CO2-air at 37° C. At the end of incubation, MTT tetrazolium dye solution (Cell titer 96®, Promega, Madison, Wis.) was added to each well and incubated overnight. The reaction was stopped with stop solubilization solution (Promega, Madison, Wis.). The plates were incubated for 5 hours to ensure that the formazan crystals were dissolved. The plates were read at a wavelength of 570 nm using an ELISA plate reader (Bio-tek instruments, Inc., Winooski, Vt., Model # EL 312e). […] Bookmark not defined.

[2] = test system: Vero (African green monkey kidney) cells; experiment: in vitro; assay type: cell-based
Method: as §1

HIV-1LAI = experiment: HIV assay in human PBM cells (RT activity of supernatant); assay type: cell-based; settings: 5 days, read-out: Anti-HIV-1 Activity (EC50)
From the text: Human peripheral blood mononuclear (PBM) cells (obtained from Atlanta Red Cross) were isolated by Ficoll-Hypaque discontinuous gradient centrifugation from healthy seronegative donors. Cells were stimulated with phytohemagglutinin A (Difco, Sparks, Md.) for 2-3 days prior to use. HIV-1LAI obtained from the Centers for Disease Control and Prevention (Atlanta, Ga.) was used as the standard reference virus for the antiviral assays. The molecular infetious clones HIV-1xxBru and HIV-1M184Vpin were obtained from Dr. John Mellors (University of Pittsburgh). Infections were done in bulk for one hour, either with 100 TCID50/1×10^7 cells for a flask (T25) assay or with 200 TCID50/6×10^5 cells/well for a 24 well plate assay. Cells were added to a plate or flask containing a ten-fold serial dilution of the test compound. Assay medium was RPMI-1640 supplemented with heat inactivated 16% fetal bovine serum, 1.6 mM L-glutamine, 80 IU/ml penicillin, 80 μg/ml streptomycin, 0.0008% DEAE-Dextran, 0.045% sodium bicarbonate, and 26 IU/ml recombinant interleukin-2 (Chiron Corp, Emeryville, Calif.). AZT was used as a positive control for the assay. Untreated and uninfected PBM cells were grown in parallel at equivalent cell concentrations as controls. The cell cultures were maintained in a humidified 5% CO2-air at 37° C. for 5 days and supernatants were collected for reverse transcriptase (RT) activity.
Supernatants were centrifuged at 12,000 rpm for 2 hours to pellet the virus. The pellet was solubilized with vortexing in 100 μl virus solubilization buffer (VSB) containing 0.5% Triton X-100, 0.8 M NaCl, 0.5 mM phenylmethylsulfonyl fluoride, 20% glycerol, and 0.05 M Tris, pH 7.8. Ten μL of each sample were added to 75 μL RT reaction mixture (0.06 M Tris, pH 7.8, 0.012 M MgCl2, 0.006 M dithiothreitol, 0.006 mg/ml poly (rA)n, oligo (dT)12-18, 96 μg/ml dATP, and 1 μM of 0.08 mCi/ml ^3H-thymidine triphosphate (Moravek Biochemicals, Brea, Calif.) and incubated at 37° C. for 2 hours. The reaction was stopped by the addition of 100 μL 10% trichloroacetic acid containing 0.05% sodium pyrophosphate. The acid insoluble product was harvested onto filter paper using a Packard Harvester (Meriden, Conn.), and the RT activity was read on a Packard Direct Beta Counter (Meriden, Conn.). The RT results were expressed in counts per minute (CPM) per milliliter.

[3] = test system: mitochondrial cytochrome C oxidase subunit II (COXII) gene; assay type: cell-based, human; settings: HepG2, 10 μM, 7 days
From the text: The Q-RT-PCR technology was also used to evaluate potential mitochondrial γ-DNA polymerase inhibition by the compounds of the present invention in relevant human cells. […] Since active nucleoside compounds in the triphosphate form lack a 3′-OH, thereby stopping virus replication by chain termination, there is a concern that these nucleoside analogues are also substrates for the human DNA polymerase γ, resulting in inhibition of mitochondrial DNA replication and subsequently toxic side effects (11, 19). In an attempt to provide direct quantifiable data on mitochondrial DNA levels intracellular, a Q-PCR technology was designed and relative quantification of COXII DNA levels were calculated using the comparative Ct method. […] Also, in agreement with previous observations, no changes in normalized mitochondrial DNA levels were observed after FIAU and D4T treatment (6, 8, 23).
Low passage number HepG2 cells, obtained from American Tissue Culture Collection (ATCC, Manassas, Va.) were seeded at 5,000 cells/well in collagen-coated 96-well plates. Test compounds were added to the media to obtain a final concentration of 10 μM. On culture day 7, cellular nucleic acids were prepared by using commercially available columns (RNeasy 96 kit, Qiagen). […] The mitochondrial cytochrome C oxidase subunit II (COXII) gene and the β-actin or rRNA gene were amplified from 5 μL with a multiplex Q-PCR protocol using the suitable primers and probes for both target and reference (designed using the Primer Express software, Applied Biosystems); • for COXII. • sense primer 5′-[…]-3′ (Sequence 7); • probe 5′-TET-[…]-TAMRA-3′ (Sequence 8); and • antisense probe 5′-[…]-3′ (Sequence 9); • for exon 3 of β-actin (GenBank E01094): • sense primer 5′-[…]-3′ (Sequence 10); • probe 5′-6FAM-[…]-TAMRA-3′ (Sequnece 11); and • antisense probe 5′-[…]-3′ (Sequence 12).
The rRNA gene primers and probes were purchased from Applied Biosystems. Standard curves using 1-log diluted total HepG2 DNA were linear over more than 5 logs. In addition, efficiencies of target (COXII DNA) and reference (β-actin DNA or rRNA) amplification were approximately equal, because the slope of the ΔCt line (Ct β-actin minus Ct mitochondrial) was less than 0.1 (not shown). Since equal amplification efficiencies were obtained for both genes, the comparative cycle threshold (Ct) method was used to investigate potential inhibition of the mitochondrial DNA polymerase γ. The comparative Ct method uses arithmetic formulas in which the amount of target (COXII gene) is normalized to an endogenous reference (β-actin gene or rRNA gene) and is relative to a calibrator (no drug control at day 7). The arithmetic formula for this approach is given by 2-ΔΔCt (User bulletin # 2, Applied Biosystems).
In order to study the consequences of possible inhibitory effects of these compounds on host DNA polymerases, nuclear and rnitochondrial DNA levels were quantified and compared to no-treatment controls. Cells were incubated for 7 days with 10 μM of each compound, followed by total nucleic acid extractions and multiplex Q-PCR of the rRNA gene and the mitochondrial COXII gene. Nucleic acids from cells exposed to the control compounds were also amplified in multiplex for mitDNA and the β-actin gene. The results are presented in Table 4 using the comparative Ct method.

`O=c1[nH]cnc2c1ncn2[C@H]1S[C@@H](CO)C=C1F` [Compound L-28, (−)-9-[(1S,4R)-2,3-dideoxy-2,3-didehydro-2-fluoro-4-thio-β-L-ribofuranosyl]-hypoxanthine] was tested, and the IC50 (human PBM cells) was over 100 µM, the IC50 [1] was over 100 µM and the IC50 [2] was over 100 µM. For the same molecule, the EC50 (HIV-1LAI) was 15.5 µM.
In the case of `Nc1ncnc2c1ncn2[C@H]1S[C@@H](CO)C=C1F` [Compound L-27, (−)-9-[(1S,4R)-2,3-dideoxy-2,3-didehydro-2-fluoro-4-thio-β-L-ribofuranosyl]adenine], the IC50 (human PBM cells) is reported as over 100 µM, the IC50 [1] is reported as over 100 µM and the IC50 [2] is reported as over 100 µM. The EC50 (HIV-1LAI) was 1.7 µM.
Molecule “(−)-1-[(1S,4R)-2,3-dideoxy-2,3-didehydro-2-fluoro-4-thio-β-D-ribofuranosyl]-thymine [Compound D-19]” has an IC50 (human PBM cells) of over 100 µM, an IC50 [1] of over 100 µM and an IC50 [2] of 53 µM. For the same molecule, the EC50 (HIV-1LAI) was 92.3 µM.
`Cc1cn([C@H]2C=C[C@@H](CO)O2)c(=O)[nH]c1=O` [D-D4T, β-D-2′,3′-didehydro-3′-deoxythymidine] was tested, and the “COXIINβ-actin DNA (range) relative to control” value ([3]; COXII DNA normalized to β-actin DNA, 2-ΔΔCt) was 0.85 (0.79-0.88), the “Average ΔCt ± SD COXII DNA” value [3] was 0.29 ± 0.01 and the “Average ΔΔCt ± SD COXII-β-actin” value [3] was 0.23 ± 0.04. The “effect on (normalized) mitochondrial COXII DNA levels, in words” value [3] was “no changes”.
`Nc1nc2c(ncn2[C@H]2S[C@@H](CO)C=C2F)c(=O)[nH]1` [Compound L-32, (+)-9-[(1S,4R)-2,3-dideoxy-2,3-didehydro-2-fluoro-4-thio-β-L-ribofuranosyl]-guanosine] was tested, and the IC50 (human PBM cells) was 13 µM, the IC50 [1] was 10.4 µM and the IC50 [2] was 66.1 µM.
For `Nc1ccn([C@H]2CC[C@@H](CO)O2)c(=O)n1` [D-ddC, β-D-2′,3′-dideoxycytidine], the “COXIINrDNA (range) relative to control” value ([3]; COXII DNA normalized to rDNA, 2-ΔΔCt) was 0.23 (0.15-0.37), the “Average ΔΔCt ± SD COXII-rDNA” value [3] was 2.09 ± 0.65^d and the “Average ΔΔCt ± SD COXII-β-actin” value [3] was 2.9 ± 0.23^d. For the same molecule, the “effect on (normalized) mitochondrial COXII DNA levels, in words” value [3] was “reduce rnitochondrial COXII DNA levels”.
“(−)-1-[(1S,4R)-2,3-dideoxy-2,3-didehydro-2-fluoro-4-thio-β-D-ribofuranosyl]-uracil [Compound D-20]” gave an IC50 (human PBM cells) of over 100 µM, an IC50 [1] of over 100 µM and an IC50 [2] of over 100 µM. It also gave an EC50 (HIV-1LAI) of over 100 µM.
Molecule `Nc1nc(F)nc2c1ncn2[C@@H]1S[C@H](CO)C=C1F` [Compound D-33, (+)-9-[(1R,4S)-2,3-dideoxy-2,3-didehydro-2-fluoro-4-thio-β-D-ribofuranosyl]-2-fluoroadenosine] has an IC50 (human PBM cells) of 1.5 µM, an IC50 [1] of 1.1 µM and an IC50 [2] of 7.6 µM. The EC50 (HIV-1LAI) was 1.2 µM.
Molecule `Cc1cn([C@H]2S[C@@H](CO)C=C2F)c(=O)[nH]c1=O` [Compound L-19, (+)-1-[(1S,4R)-2,3-dideoxy-2,3-didehydro-2-fluoro-4-thio-β-L-ribofuranosyl]-thymine] has an IC50 (human PBM cells) of over 100 µM, an IC50 [1] of over 100 µM and an IC50 [2] of over 100 µM. The EC50 (HIV-1LAI) was over 100 µM.
Work on `Nc1nc2c(ncn2[C@@H]2S[C@H](CO)C=C2F)c(=O)[nH]1` [Compound D-32, (−)-9-[(1R,4S)-2,3-dideoxy-2,3-didehydro-2-fluoro-4-thio-β-D-ribofuranosyl]-guanosine] yielded an IC50 (human PBM cells) of over 100 µM, an IC50 [1] of over 100 µM and an IC50 [2] of over 100 µM. The EC50 (HIV-1LAI) was 80.5 µM.
For `O=c1[nH]cnc2c1ncn2[C@@H]1S[C@H](CO)C=C1F` [Compound D-28, (+)-9-[(1R,4S)-2,3-dideoxy-2,3-didehydro-2-fluoro-4-thio-β-D-ribofuranosyl]-hypoxanthine], the IC50 (human PBM cells) was over 100 µM, the IC50 [1] was over 100 µM and the IC50 [2] was over 100 µM. The EC50 (HIV-1LAI) was 43.6 µM.
`O=c1ccn([C@H]2S[C@@H](CO)C=C2F)c(=O)[nH]1` [Compound L-20, (+)-1-[(1S,4R)-2,3-dideoxy-2,3-didehydro-2-fluoro-4-thio-β-L-ribofuranosyl]-uracil] was tested, and the IC50 (human PBM cells) was over 100 µM, the IC50 [1] was over 100 µM and the IC50 [2] was over 100 µM. For the same molecule, the EC50 (HIV-1LAI) was over 100 µM.

— patent US6949522B2, “β-2′- or 3′-halonucleosides” (Pharmasset, Inc., priority 2001, dated 2005)
